Laboratory results: US8562804B2 (priority 2006, dated 2013)
“And” between values parts separate entries of the source, which are not always exact repeats. Identical values can stand only once. Like-named read-outs stand apart in the source and are kept apart here.

Experiments:
[1] = assay type: physicochemical

O=[N+]([O-])c1ccccc1O [2NP, 2-nitrophenol]
effective mobility ([1]; pH 6.4): 12.2(±0.3)·10^−9 m^2/Vs and 13.4(±0.3)·10^−9 m^2/Vs
effective mobility ([1]; pH 6.8): 15.8(±0.2)·10^−9 m^2/Vs and 16.3(±0.2)·10^−9 m^2/Vs
pKa (physchem): 6.7
